The values that follow come from patent US9078831B2, “Cosmetic treatment method using a compound that can be condensed in situ and a UV-radiation-filtering agent” (L'Oreal, priority 2009, dated 2015).

Experiment [1] can be described thus: Persistence towards water (water resistance, SPF before and after baths) in vivo. More on the design: species or system volunteers. The note with it: APTES layer under Example 2, in words. The procedure: (§1) The screening effectiveness and the persistence towards water of a solution of UV screening agents, applied to a condensed deposited layer of APTES, in comparison with a solution deposited on bare skin, are evaluated and compared at different concentrations. The UV screening agents tested are Phenylbenzimidazole Sulfonic Acid and Terephthalylidene Dicamphor Sulfonic Acid.
(§2) The studies were carried out on 5 volunteers of phototype I, II or III. The studies targeted exclusively at determining the screening effectiveness took place over 2 consecutive days, when 3 days were necessary for measurements of persistence towards water. On the first day, the screening formulation is applied at 2 mg per cm^2 on bare skin or on a condensed deposited layer of APTES. The volunteers are subsequently exposed to ultraviolet radiation. Erythema is read and the SPF is defined 24 h later. In the case of a test of persistence towards water, the same solutions or pairs of solutions are applied on the second day. The volunteers are immersed in 2 consecutive baths of water, each of 20 minutes, Wore being again exposed to UV radiation. The post-bath SPF is determined during the third test day. The water resistance (WR) is defined as: […]
The water resistance of the 12% solution of UV screening agents was also evaluated in vivo, with and without APTES. […]

Experiment [2] is described as follows: Screening effectiveness (SPF) in vivo. The note with it: spread over a deposited layer of APTES versus bare skin; 2 mg per cm^2; erythema read 24 h later. More on the design: species or system volunteers. The method, then: as §1
as §2, with “day.” for “day. The water resistance (WR) is defined as:”
The SPF values of the 8% and 12% solutions of UV screening agents are measured, which measurements are taken after spreading over bare skin or over deposited layers more or less concentrated in APTES. […]

Regarding `CCO[Si](CCCN)(OCC)OCC` [APTES, γ-aminopropyltriethoxysilane], the “resistance to water of the UV screening agents” value in experiment [1] is “significantly increase the resistance to water”. The SPF in vivo result in experiment [2] was “SPF increases in proportion as the amount of APTES spread beforehand over the skin increases”.
